# Source: US11618747B2, “LXR modulators with bicyclic core moiety” (OrsoBio, Inc., priority 2018, dated 2023)
# Read-outs that look alike come from different tables or passages of the source.
# Target: T1, ligand-binding domain (LBD) of LXRβ (Homo sapiens, UniProt P55055, DUP175-175)
# T1 construct: LXRβ (amino acids 156-461); expressed in transfected cells; host or cells: HEK293
# T1 sequence (P55055 with tags, fused parts or gaps DUP175-175 limits assumed): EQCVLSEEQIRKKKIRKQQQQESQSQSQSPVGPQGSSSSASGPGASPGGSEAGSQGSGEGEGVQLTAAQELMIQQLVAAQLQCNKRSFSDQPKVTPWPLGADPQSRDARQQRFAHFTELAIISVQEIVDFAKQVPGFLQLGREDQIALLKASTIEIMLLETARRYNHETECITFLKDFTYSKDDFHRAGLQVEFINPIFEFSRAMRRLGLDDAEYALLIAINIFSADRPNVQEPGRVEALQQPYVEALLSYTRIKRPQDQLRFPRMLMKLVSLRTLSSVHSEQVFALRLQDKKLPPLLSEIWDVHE
# Assay: LXR Gal4 reporter transient transfection assay (LBD-M2H Gal4β)
# Type: cell-based
# Details: HEK293 cells
# Procedure, shortened: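 Mammalian two-hybrid in HEK293: AD-LXR (FL or LBD) + BD-cofactor (SRC1 coactivator or NCoR corepressor domain), pFR-Luc reporter, pRL-CMV normaliser; PEI transfection. Compound added 4 h later (DMSO ≤0.2% final), 16 h incubation at 37 °C. Firefly/Renilla luminescence measured sequentially in lysate.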
# [1] = LXRβ LBD, read-out: LBD-M2H Gal4β (EC50 range)
smiles,measurement,setting,value
Cc1ccc(S(=O)(=O)n2c(-c3cccc(N4CC(C(=O)O)C4)c3)c(-c3ccsc3C#N)c3cc(C)ccc32)cc1 [3/46],EC50,[1],< 100 nM
Cc1ccc(S(=O)(=O)n2c(-c3cccc(N4CC(C(=O)O)C4)c3)c(-c3ccsc3C#N)c3cc(F)ccc32)cc1 [3/32],LBD-M2H Gal4β efficacy (value in brackets),,81%
same,EC50,read-out: LBD-M2H Gal4β potency,13 nM
Cc1ccc(S(=O)(=O)n2c(-c3cccc(N4CC(C(=O)O)C4)c3)c(-c3ccsc3C#N)c3cc(Cl)ccc32)cc1 [3/44],EC50,[1],< 100 nM
Cc1ccc(S(=O)(=O)n2c(-c3cccc(N4CC(C(=O)O)C4)c3)c(-c3ccsc3C#N)c3cc(F)c(Cl)cc32)cc1 [3/43],EC50,[1],100 to 1000 nM
Cc1ccc(S(=O)(=O)n2c(-c3cccc(N4CC(C(=O)O)C4)c3)c(-c3ccsc3C#N)c3cc(F)c(F)cc32)cc1 [3/42],EC50,[1],< 100 nM
